In PMC12305494, “Discovery of PXR Antagonist MI891 and PXR Degrader MI1013 and Their Roles in Hepatic Gene Regulation” (Journal of Medicinal Chemistry, 2025):
“And” between values parts separate entries of the source, which are not always exact repeats. Equal values may be shown once.

What was measured:
[1] = Microsomal stability, human microsomes; format: in vitro ADME; conditions: liver microsomes; 0.5 mg/mL human microsomes, 5 μM, up to 45 min; read-out: Microsomal stability, t1/2 (min), human
Experimental: The protocols and reagents for the plasma protein binding assay and metabolic stability testing in human and mouse liver microsomes are detailed in our previous report. […] The stability of compounds was tested in human and mouse microsomes (ThermoFisher Scientific). Compounds were tested in triplicate with or without NADPH wells as a negative control for cytochrome P450 metabolism. […] Each assay included a substrate with known activity as a positive control. Time points were analyzed by LC/MS/MS. The peak area for the parent compound is compared to the time zero sample in order to assess the amount of remaining compound.

[2] = target: PPARα (Homo sapiens, UniProt Q07869); assay: PPARα luciferase reporter assay, agonistic and antagonistic setups; format: cell-based; conditions: prototype ligand fenofibrate
PPARα, sequence (Q07869 whole entry, the tested form may be a part): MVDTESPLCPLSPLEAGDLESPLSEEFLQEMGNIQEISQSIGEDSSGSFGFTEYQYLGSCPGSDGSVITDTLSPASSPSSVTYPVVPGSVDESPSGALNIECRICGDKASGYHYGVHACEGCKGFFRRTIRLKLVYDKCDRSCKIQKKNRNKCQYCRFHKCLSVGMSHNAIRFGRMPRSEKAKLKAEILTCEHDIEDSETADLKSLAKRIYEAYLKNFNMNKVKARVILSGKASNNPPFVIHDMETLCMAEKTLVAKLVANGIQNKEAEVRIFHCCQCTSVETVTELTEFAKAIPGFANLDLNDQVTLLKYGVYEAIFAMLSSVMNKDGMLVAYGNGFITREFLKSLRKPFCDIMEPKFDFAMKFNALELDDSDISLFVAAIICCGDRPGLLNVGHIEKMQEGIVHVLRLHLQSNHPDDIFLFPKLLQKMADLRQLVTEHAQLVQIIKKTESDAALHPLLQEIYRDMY
Experimental: For the farnesoid X receptor (FXR) luciferase gene reporter assay, the full-length expression vector was paired with pFXRE-luc luciferase construct. The p1A1-luc construct was used in the aryl hydrocarbon receptor (AhR) assays with pRL-TK for normalization. Gal4-LXR-α/β, and Gal4-PPAR-γ constructs were used with the pGAL4 UAS-luc construct. For the VDR assay, expression vector pSG5-hVDR together with pVDRE-luc constructs was used. Firefly and Renilla luciferase activities were analyzed using a Dual reporter assay (Promega). For the nuclear receptor assays, prototype ligands were used at the following concentrations: Calcitriol for VDR (100 nM), GW3965 for LXRα and LXRβ (10 μM), 6-OCA for FXR (1 μM), fenofibrate for PPARα (10 μM), estradiol for ERα and β (10 μM), rosiglitazone for PPARγ (10 μM), 3-MC for AhR (5 μM), and TCPOBOP for mCAR (10 μM). Detailed descriptions and protocols are detailed in our recent publication. ,

[3] = target: T1, human wild-type CAR (CARwt) (Homo sapiens, UniProt Q14994); assay: CARwt luciferase reporter gene assay in HepG2; format: cell-based
T1 construct: expressed in transfected cells; host or cells: HepG2
T1 sequence (Q14994 1-348 isoform Q14994-2): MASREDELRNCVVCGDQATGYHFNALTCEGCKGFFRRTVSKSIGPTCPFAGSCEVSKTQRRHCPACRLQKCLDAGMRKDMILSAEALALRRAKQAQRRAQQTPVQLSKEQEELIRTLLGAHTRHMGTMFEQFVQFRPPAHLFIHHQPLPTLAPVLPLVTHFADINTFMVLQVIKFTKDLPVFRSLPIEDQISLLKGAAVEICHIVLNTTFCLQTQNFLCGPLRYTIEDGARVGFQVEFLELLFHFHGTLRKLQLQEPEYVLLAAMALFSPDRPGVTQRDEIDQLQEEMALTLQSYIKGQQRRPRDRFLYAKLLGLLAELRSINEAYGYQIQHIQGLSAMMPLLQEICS
Experimental: Rhesus monkey, mouse, and rat PXR expression vectors (100 ng/well each) were also obtained from GenScript. […] Carlberg (University of Kuopio, Kuopio, Finland).
(§1) The cells were cultured in DMEM medium (Merck) supplemented with 10% fetal bovine serum.

[4] = Plasma stability, human plasma; format: in vitro ADME; conditions: up to 120 min, read-out: Plasma stability, t1/2 (min), human
[5] = target: T2, human CAR LBD (Homo sapiens, UniProt Q14994); assay: CAR LBD assembly assay (CAR AA); format: cell-based
T2 construct: constructs encoding helices 3–12 and helix 1 of human CAR LBD; expressed in transfected cells; host or cells: HepG2
T2 sequence (Q14994 103-150 isoform Q14994-2 limits assumed): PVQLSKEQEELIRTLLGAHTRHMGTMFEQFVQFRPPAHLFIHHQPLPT
T2 sequence (Q14994 151-348 isoform Q14994-2 limits assumed): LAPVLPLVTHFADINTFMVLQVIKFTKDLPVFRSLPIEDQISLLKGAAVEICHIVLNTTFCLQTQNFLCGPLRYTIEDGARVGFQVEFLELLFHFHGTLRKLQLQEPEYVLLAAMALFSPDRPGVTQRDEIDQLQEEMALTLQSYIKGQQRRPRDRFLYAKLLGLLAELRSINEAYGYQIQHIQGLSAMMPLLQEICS
Excerpt: The CAR LBD assembly assay used constructs encoding helices 3–12 and helix 1 of human CAR LBD as described before. GL4.31[luc2P/GAL4UAS/Hygro] (pGAL4 UAS-luc) luciferase reporter vector and pRL-TK Renilla expression vector (Promega) were used in the assay in HepG2 cells transfected using Lipofectamine 3000.

[6] = target: rhesus monkey PXR (oPXR) (Macaca mulatta, UniProt Q8SQ01); assay: Rhesus monkey PXR luciferase reporter assay; format: cell-based; conditions: rifampicin as prototypical inducer
rhesus monkey PXR (oPXR), sequence (Q8SQ01 whole entry): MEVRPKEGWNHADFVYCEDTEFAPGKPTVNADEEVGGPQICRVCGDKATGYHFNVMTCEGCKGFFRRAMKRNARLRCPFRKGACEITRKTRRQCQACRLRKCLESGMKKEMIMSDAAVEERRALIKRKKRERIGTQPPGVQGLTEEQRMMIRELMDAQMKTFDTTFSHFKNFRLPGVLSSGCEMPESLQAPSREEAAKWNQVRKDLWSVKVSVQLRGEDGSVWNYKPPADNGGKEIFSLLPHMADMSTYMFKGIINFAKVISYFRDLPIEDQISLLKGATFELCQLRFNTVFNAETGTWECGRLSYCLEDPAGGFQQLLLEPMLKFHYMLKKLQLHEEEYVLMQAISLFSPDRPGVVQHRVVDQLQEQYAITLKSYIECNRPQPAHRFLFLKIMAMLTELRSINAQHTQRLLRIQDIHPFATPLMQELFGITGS
Experimental: The CYP3A4 gene promoter luciferase reporter construct (p3A4-luc) bears a distal XREM (−7836/–7208) and a proximal promoter sequence (prPXRE, −362/+53) from the CYP3A4 gene promoter region. […] The human PXR expression vector (variant 1, NM_003889.3) as well as vectors for mouse, rat, and monkey orthologues were described in our recent paper (39). […] Rhesus monkey, mouse, and rat PXR expression vectors (100 ng/well each) were also obtained from GenScript. […] Carlberg (University of Kuopio, Kuopio, Finland).
as §1

[7] = system: RXRα; assay: Western blot of RXRα in HepaRG cells; format: cell-based, human; conditions: 24 h
Experimental: The harvested HepaRG cells were lysed in RIPA lysis buffer (Cat. no 89900, Thermo Scientific) containing Halt protease inhibitor cocktail inhibitors (Thermo Scientific). Protein concentration was measured using the Pierce BCA Protein Assay Kit (Cat. no. 23225, Thermo Scientific), samples were diluted in 4 × Laemmli sample buffer (Cat. no. 1610747, BioRad) supplemented with mercaptoethanol and heated at 95 °C for 5 min. Equal amounts of protein were loaded in 4–20% Mini-PROTEAN TGX Stain-Free Protein Gels (12 well. cat. no. 4561095 or 15 well, cat. no. 4568096, Bio-Rad), electrophorised, and transferred onto Trans-Blot Turbo Midi-size PVDF Membrane (cat. no. 1704273, Bio-Rad), and blocked with EveryBlot Blocking buffer for 10 min (cat. no. 12010020, Bio-Rad). […] Chemiluminescence signals were detected using SuperSignal West Femto Maximum Sensitivity Substrate (cat. no. 34096, Thermo Scientific) and visualized by the ChemiDoc MP Imaging system (Universal Hood III, #731BR02821, Bio-Rad), and the bands were quantified using β-actin (1:2000, recombinant rabbit conjugated monoclonal antibody (JF53-10), cat. no. MA5-32540, Invitrogen) as loading control with ImageJ (version 1.54g) software.

Row | Compound | half-life at 5 μM [1] [min] | agonistic or antagonistic activity on PPARα [2] | EC50 ([3]; HepG2, read-out: CARwt activation EC50) | activation of CARwt ([3]; at concentrations up to 10 μM) | half-life [4] [min] | activation of CAR LBD assembly ([5]; at 10 μM concentration) | EC50 ([5]; na = no activity, tox = cytotoxicity in HepG2 cells) [µM] | activity on rhesus monkey PXR (oPXR) [6] | RXRα degradation [7]
1 | NC(=O)c1cc(Cn2cc(-c3c(-c4ccc(Cl)cc4)nc4c(F)cc(F)cn34)nn2)ccc1Cl [Compound 11, 2-Chloro-5-((4-(2-(4-chlorophenyl)-6,8-difluoroimidazo[1,2-a]pyridin-3-yl)-1H-1,2,3-triazol-1-yl)methyl)-benzamide] | > 45 | no significant agonistic or antagonistic activities | ~137 µM and 137 µM | no significant activation | > 120 | lack of significant (p value 0.07) activation | > 10 | full agonism | 
2 | N-(4-((1-(2,5-dimethoxyphenyl)-5-methyl-1H-1,2,3-triazol-4-yl)sulfonyl)phenyl)-3-(2-(2-(2-(4-(((2-(2,6-dioxopiperidin-3-yl)-1,3-dioxoisoindolin-4-yl)amino)methyl)-1H-1,2,3-triazol-1-yl)ethoxy)ethoxy)ethoxy)propenamide [Compound 36] |  |  |  |  |  |  |  |  | does not degrade
